Measurements published in US8183230B2, “Antimicrobial preservatives to achieve multi-dose formulation using beta-cyclodextrins for liquid dosage forms” (priority 2004, dated 2012).

Assays:
[1] = Calculated non-sequestered concentrations in formulations
Description: These constants were used to calculate the concentration of non-sequestered meta-cresol in the formulations tested for anti-microbial efficacy.
The appearance of a plateau at the higher concentrations is only due to the limitation in the bactericidal efficacy measurement method. As the method consists in evaluating the population not killed by the preservative, when the whole population is dead (i.e. none is detectable any more ˜100%) the figure quoted is of the form: a log reduction greater than a value usually between 3 and 5.
The formulations were analyzed for preservative effectiveness.

[2] = Stability measurements (accelerated stability)
Experimental: Stability Measurements. Potential lead formulations were evaluated under various accelerated stability conditions in order to assess potency and purity of compound of Formula Ia, preservative content and SBE-CD content. For example, in one accelerated stability study, potential lead formulations were placed in stability ovens to measure short-term thermal stability. […] Purity and potency assays to measure compound of Formula Ia, as well as antimicrobial preservatives and SBE-CD content, were performed using validated HPLC methodology. SBE-CD was assayed using GTP 5984.

[3] = Solubility analysis (solubility method) for binding constant with SBE-CD; conditions: for K11 (equilibrium): meta-cresol saturated solubility in varying SBE-CD; for Slope / y-intercept: meta-cresol solubility vs. SBE-CD concentration
Experimental: Traditional solubility methods were performed initially to determine the solubility and binding constants of compound of Formula Ia and preservative with SBE-CD.
Binding was calculated for meta-cresol using solubility analysis. The experiment was performed at different concentrations of compound of Formula Ia to determine if there was any effect from the presence of drug in solution on the meta-cresol binding constant. Meta-cresol solubility was measured in excess (saturated) meta-cresol and the equilibrium binding constant was calculated using the following equation:
[formula] Where St is the total solubility of meta-cresol, s0 is the inherent solubility of meta-cresol, Lt is the total concentration of SBE-CD (ligand) and K11 is the equilibrium binding constant of meta-cresol assuming a 1 to 1 binding stoichiometry.

[4] = Equilibrium dialysis method for determining binding constants; conditions: for Keq / k: binary, SBE-CD 1.0 mM
Description: In the present invention, the method to determine binding constants utilizes equilibrium dialysis in the development of a multi-use parenteral formulation containing SBE-CD and a preservative. In particular, the method was applied in developing a parenteral formulation comprising the compound of Formula Ia, a cyclodextrin (SBE-CD) and a preservative (meta-cresol). This approach is applicable to compounds other than the compound of Formula Ia in developing parenteral formulations and is within the scope of this invention. […] The significance of this procedure is its ability to measure the binding constant of multiple compounds competing for binding with the cyclodextrin. The experimental dialysis data also provides an easily interpreted representation of binding in the formulation by visualizing the degree of interaction by the equilibrium established following dialysis.
Equilibrium dialysis permits calculation of binding constants by modeling the resultant diffusion rate across a semi-permeable membrane with an equilibrium end point. Equilibrium dialysis is performed by allowing the substrate in a solution containing bound substrate and ligand in a donor compartment of an equilibrium dialysis apparatus (cell) to equilibrate over time with an acceptor compartment. Ono, N., Hirayama, F., Arima, H., Uekama, K. “Determination of Stability Constant of β-Cyclodextrin Complexes Using the Membrane Permeation Technique and the Permeation Behavior of Drug Competing Agent-β-Cyclodextrin Ternary Systems” Eur. J. Pharm. Sci. 1999 9:133-139. The acceptor cell contains no ligand. The membrane is semi-permeable allowing the typically low molecular weight substrates to freely diffuse, while the cyclodextrin (MW=2163) remains in the donor compartment. Sampling from both compartments over time yields a time-concentration profile of substrate in both the donor and acceptor compartments of the dialysis cell.
A mathematical model describing the diffusion rate of drug across the membrane can be derived for systems containing two or more components in solution. The dialysis rate and binding constant for the substrates are obtained by resolving the equation using nonlinear curve fitting software. Depending on the interactions between the components it is possible to describe the competitive binding that occurs in the solution. The equilibrium binding constant is a measure of the relative concentration of meta-cresol bound to SBE-CD according to the chemical equilibrium equation below: S=meta-cresol, L=SBE-CD. S:L indicates the complex formed between meta-cresol and SBE-CD.
The initial experiments established the equilibrium dialysis flux rates for compound of Formula Ia and meta-cresol across the 500 MWCO dialysis membrane. Three different concentrations of compound of Formula Ia were initially loaded into the donor side of the dialysis well. Samples were withdrawn at various time intervals and concentration of free component was measured using HPLC. […] The smoothed line was a fit to the data using the model for a unitary system presented in the discussion. The equilibrium point for all these control experiments was reached after 50% of the total drug was distributed uniformly across the donor and acceptor sides of the well. This asymptotic approach to equilibrium was modeled and the dialysis rates were calculated, Table II.
The primary method of analyzing the data was to perform calculations from equilibrium dialysis data, as described below. In particular, the rate of diffusion across the membrane was calculated using the following equations:
The rate of diffusion from the donor phase is defined by the following relationship: [D]t−[D]eq=([D]0−[D]eq)e^(−2kt) (1)
Rate of diffusion into the Acceptor Phase: [D]eq−[D]t=[D]eqe^(−2kt) (2) wherein
The basis of calculation in the presence of SBE-CD is to assume that complexation occurs only in the donor phase according to the standard complexation reaction:
The value for CyDF may be substituted into equation 8. […]

[5] = Compound of Formula Ia 00.00 mM
[6] = Compound of Formula Ia 10.67 mM
[7] = Compound of Formula Ia 21.34 mM
[8] = Compound of Formula Ia 42.67 mM
[9] = approximate ratio 1:1, Meta-cresol 1.1 mM
[10] = approximate ratio 1:2, Meta-cresol 0.6 mM
[11] = approximate ratio 1:4, Meta-cresol 0.3 mM

## Cc1cccc(O)c1 [meta-cresol]
[1]; for preservative effectiveness in drug/cyclodextrin/preservative formulations
  minimum concentration of non sequestered preservative: 2.1 mg/mL
[1]; preferred formulation: 10 mgA/mL compound, 63 mg/mL SBE-CD, 3.3 mg/mL meta-cresol, pH 4.4
  calculated non-sequestered concentration: 2.8 mg/mL
[2]
  stability in the formulation (in words): excellent stability
[2]; 5° C., 1 week, Amber-Treated, 3 mg/mL meta-cresol, 100 mg/mL SBE-CD, 10 mgA/mL compound of Formula Ia
  CONTENT (% INTENT): 102 % INTENT
[2]; 5° C., 1 week, Amber-Untreated, 3 mg/mL meta-cresol, 100 mg/mL SBE-CD, 10 mgA/mL compound of Formula Ia
  CONTENT (% INTENT): 102 % INTENT
[2]; 5° C., 3 weeks, Amber-Treated, 3 mg/mL meta-cresol, 100 mg/mL SBE-CD, 10 mgA/mL compound of Formula Ia
  CONTENT (% INTENT): 104 % INTENT
[2]; 5° C., 3 weeks, Amber-Untreated, 3 mg/mL meta-cresol, 100 mg/mL SBE-CD, 10 mgA/mL compound of Formula Ia
  CONTENT (% INTENT): 103 % INTENT
[2]; 5° C., 6 weeks, Amber-Treated, 3 mg/mL meta-cresol, 100 mg/mL SBE-CD, 10 mgA/mL compound of Formula Ia
  CONTENT (% INTENT): 104 % INTENT
[2]; 5° C., 6 weeks, Amber-Untreated, 3 mg/mL meta-cresol, 100 mg/mL SBE-CD, 10 mgA/mL compound of Formula Ia
  CONTENT (% INTENT): 102 % INTENT
[2]; 5° C., 12 weeks, Amber-Treated, 3 mg/mL meta-cresol, 100 mg/mL SBE-CD, 10 mgA/mL compound of Formula Ia
  CONTENT (% INTENT): 98 % INTENT
[2]; 5° C., 12 weeks, Amber-Untreated, 3 mg/mL meta-cresol, 100 mg/mL SBE-CD, 10 mgA/mL compound of Formula Ia
  CONTENT (% INTENT): 98 % INTENT
[2]; 50° C., 1 week, Amber-Treated, 3 mg/mL meta-cresol, 100 mg/mL SBE-CD, 10 mgA/mL compound of Formula Ia
  CONTENT (% INTENT): 99 % INTENT
[2]; 50° C., 1 week, Amber-Untreated, 3 mg/mL meta-cresol, 100 mg/mL SBE-CD, 10 mgA/mL compound of Formula Ia
  CONTENT (% INTENT): 100 % INTENT
[2]; 50° C., 3 weeks, Amber-Treated, 3 mg/mL meta-cresol, 100 mg/mL SBE-CD, 10 mgA/mL compound of Formula Ia
  CONTENT (% INTENT): 103 % INTENT
[2]; 50° C., 3 weeks, Amber-Untreated, 3 mg/mL meta-cresol, 100 mg/mL SBE-CD, 10 mgA/mL compound of Formula Ia
  CONTENT (% INTENT): 101 % INTENT
[2]; 50° C., 6 weeks, Amber-Treated, 3 mg/mL meta-cresol, 100 mg/mL SBE-CD, 10 mgA/mL compound of Formula Ia
  CONTENT (% INTENT): 104 % INTENT
[2]; 50° C., 6 weeks, Amber-Untreated, 3 mg/mL meta-cresol, 100 mg/mL SBE-CD, 10 mgA/mL compound of Formula Ia
  CONTENT (% INTENT): 102 % INTENT
[2]; 50° C., 12 weeks, Amber-Treated, 3 mg/mL meta-cresol, 100 mg/mL SBE-CD, 10 mgA/mL compound of Formula Ia
  CONTENT (% INTENT): 100 % INTENT
[2]; 70° C., 1 week, Amber-Treated, 3 mg/mL meta-cresol, 100 mg/mL SBE-CD, 10 mgA/mL compound of Formula Ia
  CONTENT (% INTENT): 100 % INTENT
[2]; 70° C., 1 week, Amber-Untreated, 3 mg/mL meta-cresol, 100 mg/mL SBE-CD, 10 mgA/mL compound of Formula Ia
  CONTENT (% INTENT): 100 % INTENT
[2]; 70° C., 2 weeks, Amber-Treated, 3 mg/mL meta-cresol, 100 mg/mL SBE-CD, 10 mgA/mL compound of Formula Ia
  CONTENT (% INTENT): 103 % INTENT
[2]; 70° C., 2 weeks, Amber-Untreated, 3 mg/mL meta-cresol, 100 mg/mL SBE-CD, 10 mgA/mL compound of Formula Ia
  CONTENT (% INTENT): 103 % INTENT
[2]; 70° C., 3 weeks, Amber-Treated, 3 mg/mL meta-cresol, 100 mg/mL SBE-CD, 10 mgA/mL compound of Formula Ia
  CONTENT (% INTENT): 100 % INTENT
[2]; 70° C., 3 weeks, Amber-Untreated, 3 mg/mL meta-cresol, 100 mg/mL SBE-CD, 10 mgA/mL compound of Formula Ia
  CONTENT (% INTENT): 102 % INTENT
[2]; 70° C., 6 weeks, Amber-Treated, 3 mg/mL meta-cresol, 100 mg/mL SBE-CD, 10 mgA/mL compound of Formula Ia
  CONTENT (% INTENT): 101 % INTENT
[2]; 70° C., 6 weeks, Amber-Untreated, 3 mg/mL meta-cresol, 100 mg/mL SBE-CD, 10 mgA/mL compound of Formula Ia
  CONTENT (% INTENT): 101 % INTENT
[2]; 70° C., 12 weeks, Amber-Treated, 3 mg/mL meta-cresol, 100 mg/mL SBE-CD, 10 mgA/mL compound of Formula Ia
  CONTENT (% INTENT): 100 % INTENT
[2]; 70° C., 12 weeks, Amber-Untreated, 3 mg/mL meta-cresol, 100 mg/mL SBE-CD, 10 mgA/mL compound of Formula Ia
  CONTENT (% INTENT): 100 % INTENT
[2]; ICH Photostability, 1X ICH UV/FI, Amber-Treated, 3 mg/mL meta-cresol, 100 mg/mL SBE-CD, 10 mgA/mL compound of Formula Ia
  CONTENT (% INTENT): 102 % INTENT
[2]; ICH Photostability, 1X ICH UV/FI, Amber-Untreated, 3 mg/mL meta-cresol, 100 mg/mL SBE-CD, 10 mgA/mL compound of Formula Ia
  CONTENT (% INTENT): 102 % INTENT
[2]; after 12 weeks at 70° C., relative to 1 week at 5° C., 3 mg/mL meta-cresol, 100 mg/mL SBE-CD, 10 mgA/mL compound of Formula Ia
  loss / potency decrease: 2%
[2]; pH 4.4, 10% SBE-CD, 10 mgA/mL compound of Formula Ia
  ACCEPTABLE STABILITY: ✓
[3]; average over Compound of Formula Ia 00.00 to 42.67 mM
  Average Binding Constant: 27.59 M⁻¹
[3]; [5]
  K11 (equilibrium): 24.53 M⁻¹
  Slope: 0.46
  y-intercept: 34.06 mM
[3]; [6]
  K11 (equilibrium): 25.78 M⁻¹
  Slope: 0.46
  y-intercept: 33.15 mM
[3]; [7]
  K11 (equilibrium): 35.46 M⁻¹
  Slope: 0.53
  y-intercept: 32.15 mM
[3]; [8]
  K11 (equilibrium): 24.59 M⁻¹
  Slope: 0.43
  y-intercept: 31.15 mM
[3]; solubility method, SBE-CD
  equilibrium binding constant, averaged across the studies: 27.6 M⁻¹
[3]; solubility method, n=1
  binding constant with SBE-CD: 28 M⁻¹
[4]; [9]
  Keq: 88 M⁻¹
  k: 1.984 h⁻¹
[4]; [10]
  Keq: 75 M⁻¹
  k: 2.182 h⁻¹
[4]; [11]
  Keq: 85 M⁻¹
  k: 2.761 h⁻¹
[4]; equilibrium dialysis method, binary systems, drug ±352 M−1, n=3, preservative ±7 M−1
  binding constant with SBE-CD: 83 M⁻¹
[4]; ternary systems of SBE-CD, drug and preservative at the ratios tested, equilibrium profile
  binding of preservative to cyclodextrin in ternary systems: not bound to cyclodextrin
